Experimental data reported in patent publication US20230024384A1, “C[…] COMPOUND FOR TREATING FRAGILE X SYNDROME OR RELATED DEVELOPMENTAL DISORDERS” (NEUROVENTI, priority 2020, published 2023).

Legend:
Format in all cases: in vivo, mouse
[1] = tested on: Fmr1-deficient animal model (fragile X syndrome); experiment: three-chamber test in Fmr1-deficient animal model; conditions: Fmr1 KO mice, lisuride intraperitoneally 50 ug/kg, test 30 minutes after administration, FIG. 1
Method: (§1) Purchased a 5-week-old Fmr1 knockout mouse (Jackson Laboratory, USA) weighing about 22 g to 24 g, and acclimatized to an environment with a temperature of 23±2° C. and humidity of 55±10% and a light-dark cycle of 12 hours while allowing them to freely consume water and feed (Experimental Animal Center, Konkuk University). As experimental animals, wild-type (WT) with normal FMRP expression and male KO mice lacking FMRP (fragile X mental retardation protein) expression (fragile X syndrome; FXS) were used. Dosing and experiments were performed according to the age of the week. Dosing was performed at the same time. Behavioral experiments were conducted 30 minutes after administration. […] Meanwhile, 0.25 (v/v) % DMSO was intraperitoneally administered to the control group.
If the animal model spent more time with a novel mouse rather than a familiar mouse, it is judged to be social. The test animal was exposed to the stimulus mouse for 10 minutes, and to a new stimulus mouse (novel) for another 10 minutes. In this case, the old mouse is called familiar and the new mouse is called a novel mouse. The time the test mouse explored each stimulus mouse was measured and expressed as %. As a result of the experiment, it was confirmed that the wild type spent more time with the novel mouse than the familiar mouse, indicating normal sociability. […]

[2] = tested on: Fmr1-deficient animal model (fragile X syndrome); experiment: home-cage test in Fmr1-deficient animal model; conditions: Fmr1 KO mice, lisuride once daily for 5 days, sniffing measured for 15 minutes, FIG. 2
Method: as §1
A home-cage test evaluates sociability in the breeding cage removing the possible confounders of stress due to abrupt changes in the environment. After raising the group of animals to be tested together, a wire cage was placed inside the home cage and allowed the animals to acclimatize for 30 minutes. A stimulus mouse was placed in a wire cage and the duration of sniffing by the subject mice to the wire cage was measured for 15 minutes.

[3] = tested on: Fmr1-deficient animal model (fragile X syndrome); experiment: pre-pulse (pre-wave) suppression test in Fmr1-deficient animal model; conditions: Fmr1 KO mice, lisuride intraperitoneally, FIG. 3
Method: as §1
The startle response was confirmed using an Fmr1-deficient animal model. […] Thereafter, sensorimotor gating was evaluated through a pre-wave suppression test (converted using Equation 1 below).
(§2) Pre-pulse suppression (%)=100−[(startle response to pre-stimulus+stimulus)/(start-up response to stimulus)]*100 [Equation 1]

[4] = tested on: animal model treated with apomorphine in wild-type mice; experiment: pre-wave suppression test in apomorphine-treated wild-type mice; conditions: lisuride intraperitoneally after apomorphine, FIG. 5
Method: as §2
(§3) Startle response was confirmed in an animal model treated with apomorphine or MK-801 in wild-type mice. […] Thereafter, sensorimotor gating was evaluated through a pre-wave suppression test (converted using Equation 1 above).

[5] = tested on: animal model treated with MK-801 in wild-type mice; experiment: pre-wave suppression test in MK-801-treated wild-type mice; conditions: lisuride intraperitoneally after MK-801, FIG. 6
Method: as §2, §3

CCN(CC)C(=O)N[C@H]1C=C2c3cccc4[nH]cc(c34)C[C@H]2N(C)C1 [lisuride, 1,1-Diethyl-3-(7-methyl-4,6,6a,7,8,9-hexahydro-indolo [4,3-fg]quinolin-9-yl)-urea]
sociability: time spent with novel mouse versus familiar mouse [1]: more time was spent with the novel mouse than with the familiar mouse
sniffing time to wire cage with stimulus mouse (sociability) [2]: sniffing time increased again
pre-pulse suppression (sensorimotor gating) [3]: pre-pulse suppression was restored
pre-pulse suppression (sensorimotor gating) [4]: pre-pulse suppression was restored
pre-pulse suppression (sensorimotor gating) [5]: pre-pulse suppression was restored
